Measurements from patent US20140088187A1, “ANDROGEN RECEPTOR INHIBITORS AND METHODS OF USE THEREOF” (BETH ISRAEL DEACONESS MEDICAL CENTER, priority 2010, published 2014).

Experiments:
AR WT = molecular target: T1, AR WT (Homo sapiens, UniProt P10275); experiment: AR expression levels in transiently transfected COS7 cells, AR WT; format: cell-based; details: 24 hours
T1 construct: The AR WT construct expresses full-length human AR under cmv promoter control; expressed in transfected cells; host or cells: COS7
T1 sequence (P10275 1-920): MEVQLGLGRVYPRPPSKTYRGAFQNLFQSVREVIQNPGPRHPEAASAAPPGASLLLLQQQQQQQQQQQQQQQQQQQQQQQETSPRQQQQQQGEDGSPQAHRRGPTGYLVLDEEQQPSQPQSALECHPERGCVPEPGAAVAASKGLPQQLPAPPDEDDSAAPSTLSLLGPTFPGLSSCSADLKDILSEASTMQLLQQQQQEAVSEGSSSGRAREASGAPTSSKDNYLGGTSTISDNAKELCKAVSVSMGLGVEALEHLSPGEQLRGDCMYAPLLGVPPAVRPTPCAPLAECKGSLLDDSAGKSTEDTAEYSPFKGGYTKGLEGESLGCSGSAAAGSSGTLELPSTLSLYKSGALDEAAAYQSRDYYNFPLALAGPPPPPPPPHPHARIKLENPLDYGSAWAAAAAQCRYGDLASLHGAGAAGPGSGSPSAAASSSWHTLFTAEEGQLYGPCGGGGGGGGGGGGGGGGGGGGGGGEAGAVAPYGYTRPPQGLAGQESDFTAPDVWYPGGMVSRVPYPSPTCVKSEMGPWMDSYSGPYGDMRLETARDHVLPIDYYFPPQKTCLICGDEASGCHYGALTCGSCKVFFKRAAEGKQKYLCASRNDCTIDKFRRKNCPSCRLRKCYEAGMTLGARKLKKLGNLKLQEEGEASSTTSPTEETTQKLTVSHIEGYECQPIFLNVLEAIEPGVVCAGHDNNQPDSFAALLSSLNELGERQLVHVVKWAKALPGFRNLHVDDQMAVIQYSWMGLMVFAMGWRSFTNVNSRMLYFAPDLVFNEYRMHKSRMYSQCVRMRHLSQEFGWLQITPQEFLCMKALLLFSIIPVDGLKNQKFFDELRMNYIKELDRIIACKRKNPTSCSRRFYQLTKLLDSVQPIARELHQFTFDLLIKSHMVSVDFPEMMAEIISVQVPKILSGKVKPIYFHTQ

AR = molecular target: T2, AR (Mus musculus, UniProt P19091); experiment: Dose ranging experiment in intact adult male mice (seminal vesicles, prostate epithelium); format: in vivo
T2 construct: we first treated adult male mice with compound A89 in a dose ranging experiment; from tissue; host or cells: seminal vesicles and prostate epithelium of intact adult male mice
T2 sequence (P19091 1-899): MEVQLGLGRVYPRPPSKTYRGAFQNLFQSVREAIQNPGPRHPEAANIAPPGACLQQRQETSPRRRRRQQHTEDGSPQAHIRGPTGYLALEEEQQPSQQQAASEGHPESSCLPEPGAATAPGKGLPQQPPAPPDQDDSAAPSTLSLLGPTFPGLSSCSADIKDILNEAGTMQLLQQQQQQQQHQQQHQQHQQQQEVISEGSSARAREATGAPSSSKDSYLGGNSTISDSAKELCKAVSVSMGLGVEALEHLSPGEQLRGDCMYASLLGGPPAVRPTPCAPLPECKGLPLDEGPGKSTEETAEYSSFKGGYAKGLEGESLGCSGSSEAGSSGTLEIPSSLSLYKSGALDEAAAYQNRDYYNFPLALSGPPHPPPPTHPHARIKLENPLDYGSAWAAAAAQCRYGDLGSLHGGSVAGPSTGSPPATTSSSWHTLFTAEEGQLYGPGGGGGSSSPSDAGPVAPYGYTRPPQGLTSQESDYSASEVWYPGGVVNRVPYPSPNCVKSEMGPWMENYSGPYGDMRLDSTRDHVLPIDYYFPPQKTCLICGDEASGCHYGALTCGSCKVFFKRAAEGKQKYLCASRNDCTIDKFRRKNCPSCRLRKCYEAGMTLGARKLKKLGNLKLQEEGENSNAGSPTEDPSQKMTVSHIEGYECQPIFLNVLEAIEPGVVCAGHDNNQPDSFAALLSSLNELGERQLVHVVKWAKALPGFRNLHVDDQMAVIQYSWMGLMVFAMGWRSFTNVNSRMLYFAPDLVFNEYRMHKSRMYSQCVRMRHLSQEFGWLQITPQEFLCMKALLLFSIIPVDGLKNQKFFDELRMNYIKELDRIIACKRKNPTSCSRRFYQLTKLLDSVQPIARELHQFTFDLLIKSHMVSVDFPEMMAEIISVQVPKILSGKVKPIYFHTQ
Method: (§1) FIG. 17. Compound A89 maintains activity in vivo and is efficacious in a CRPC xenograft model. (a) Morphological changes in seminal vesicles of intact adult male mice following treatment with DMSO vehicle, Bic (0.5 mg/day) or A89 (mg/day as indicated) for 7 days. (b) H&E stained cross-sections of prostate ductal epithelium from above mice treated with DMSO, Bic, or A89 (10 mg/day). (c) AR and Ki-67 staining in pre- and post-castration relapsed VCaP xenograft tumor sections following treatment with A89 (5 mg/day) or Bic (0.5 mg/day) for 7 days. (d) mRNA levels of AR and AR-target genes in post-castration relapsed VCaP xenograft tumors following treatment with A89 (5 mg/day) for 7 days. Error bars represent S.E.M.
(§2) To evaluate the activity of the chemotype A compounds in vivo we first treated adult male mice with compound A89 in a dose ranging experiment from 0.5 mg/day to 10 mg/day via intraperitoneal injection for 7 days. […] We next evaluated A89 in VCaP xenograft tumors that had relapsed following an initial response to castration, which is a model of CRPC.

VCaP xenograft tumors = experiment: Post-castration relapsed VCaP xenograft tumors (model of CRPC); format: in vivo
Method: as §1, §2

AR in VCaP cells = molecular target: T3, AR in VCaP cells (Homo sapiens, UniProt P10275); experiment: Nuclear AR, total AR protein and PSA expression in VCaP cells in steroid depleted medium; format: cell-based
T3 construct: endogenous in cells; host or cells: VCaP
T3 sequence (P10275 1-920): T1 sequence (P10275 1-920)
Excerpt: VCaP cells, derived from a CRPC vertebral metastasis, express substantial levels of AR and AR regulated genes such as PSA even when cultured in steroid depleted medium. […] In additional studies focused on chemotype A compounds, we used immunofluorescence to assess AR nuclear localization. […] In contrast, and consistent with the biochemical fractionation studies noted above, basal nuclear AR was decreased by A61.
We used the NE-PER Nuclear and Cytoplasmic Extraction Reagents (Pierce 78833).

`CCOc1cc(F)c(S(=O)(=O)NCc2ccc3c(c2)OCO3)cc1F` [Compound A89, N-(1,3-benzodioxol-5-ylmethyl)-4-ethoxy-2,5-difluorobenzenesulfonamide] was tested, and the “AR WT protein levels” value (AR WT) was “decreased in a dose dependent manner”, the “general health of mice” value (AR; 0.5 mg/day to 10 mg/day intraperitoneal injection for 7 days) was “outwardly healthy” and the “androgen sensitive prostate epithelium” value (AR; adult male mice, 7 days (10 mg/day in FIG. 17b)) was “atrophy”. The “seminal vesicles dose-dependent involution, beginning at dose” value (AR; adult male mice, intraperitoneal injection for 7 days) was at least 2.5 mg/day, the “tumor cell proliferation (Ki-67 staining)” value (VCaP xenograft tumors; A89 5 mg/day for 7 days) was “decreased tumor cell proliferation” and the “nuclear AR expression / staining in tumor” value (VCaP xenograft tumors; A89 5 mg/day or Bic 0.5 mg/day for 7 days) was “substantially decreased”. For the same compound, the “expression of androgen regulated genes (TMPRSS2, ERG, PSA mRNA)” value (VCaP xenograft tumors; biopsies pre- and post treatment, A89 5 mg/day for 7 days) was “significant decrease”, the “basal level PSA expression” value (AR in VCaP cells; 10 μM, steroid depleted medium) was “further decreasing basal level PSA expression” and the “nuclear AR” value (AR in VCaP cells; 10 μM, steroid depleted medium) was “significantly decreased nuclear AR”. The “DHT stimulated PSA expression” value (AR in VCaP cells; not shown) was “blocking DHT stimulated PSA expression”.
